Publication PMC10669037, “CRISPR/Cas12a Collateral Cleavage Activity for Sensitive 3′–5′ Exonuclease Assay” (Biosensors, 2023)

Test system: T1, Exonuclease III (Exo III)
T1 construct: gene xthA; commercial enzyme from New England BioLabs
Test: hairpin DNA digestion, coupled to Cas12a collateral cleavage of fluorescent reporter
Assay type: biochemical
Details: acts by metal chelation, not a specific binder; Exo III 5 U/mL, 10 min preincubation, hairpin probe substrate, magnesium acetate buffer pH 7.9, 37 °C; EDTA carried into the Cas12a read-out step

IC50: 6.34 mM
SMILES: O=C(O)CN(CCN(CC(=O)O)CC(=O)O)CC(=O)O [EDTA]
